{"source": "ChEMBL document CHEMBL1137628", "about": "“Bactericidal activity of extended 9-glycyl-amido-minocyclines” (2007)", "data": [{"tested_on": "Staphylococcus aureus", "test": "Antibacterial activity against Staphylococcus aureus Rosenbach after 14 hrs", "format": "functional", "units": {"MIC": "µg/mL"}, "values": [{"compound": "CN(C)c1cc(NC(=O)CNN)c(O)c2c1C[C@H]1C[C@H]3[C@H](N(C)C)C(O)=C(C(N)=O)C(=O)[C@@]3(O)C(O)=C1C2=O", "MIC": 2}, {"compound": "CN(C)c1cc(NC(=O)CN)c(O)c2c1C[C@H]1C[C@H]3[C@H](N(C)C)C(O)=C(C(N)=O)C(=O)[C@@]3(O)C(O)=C1C2=O", "MIC": 2}, {"compound": "CN(C)c1cc(N)c(O)c2c1C[C@H]1C[C@H]3[C@H](N(C)C)C(O)=C(C(N)=O)C(=O)[C@@]3(O)C(O)=C1C2=O", "MIC": 2}, {"compound": "CN(C)c1ccc(O)c2c1C[C@H]1C[C@H]3[C@H](N(C)C)C(O)=C(C(N)=O)C(=O)[C@@]3(O)C(O)=C1C2=O", "note": "[MINOCYCLINE]", "MIC": 0.125}]}]}
